The record followed here is ChEMBL document CHEMBL2010748, “Structure-Activity Relationship Studies of HIV-1 Integrase Oligonucleotide Inhibitors” (ACS Med Chem Lett, 2011).

The pIC50 is the IC50 on a negative log10 scale, so that one unit is a factor of ten. A high value points to a low IC50.

pIC50: −log10 of the molar value.

Sequence of Human immunodeficiency virus type 1 integrase (Q7ZJM1 whole entry): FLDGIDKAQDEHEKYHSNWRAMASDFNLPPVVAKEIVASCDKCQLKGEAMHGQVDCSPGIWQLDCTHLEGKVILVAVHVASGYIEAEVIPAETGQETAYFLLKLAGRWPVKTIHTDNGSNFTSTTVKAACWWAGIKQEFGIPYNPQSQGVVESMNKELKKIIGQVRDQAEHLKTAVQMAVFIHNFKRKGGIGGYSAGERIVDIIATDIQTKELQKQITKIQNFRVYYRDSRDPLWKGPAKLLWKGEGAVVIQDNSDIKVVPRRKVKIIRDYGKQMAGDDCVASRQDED

The experiment addresses Human immunodeficiency virus type 1 integrase (Human immunodeficiency virus 1, UniProt Q7ZJM1). Kind of experiment: Inhibition of Human immunodeficiency virus 1 integrase 3'-processing activity expressed in Escherichia coli using 21-mer DNA and Mg2+ after 2 hrs by polyacrylamide gel electrophoresis.
`Cc1cn([C@H]2C[C@H](O)[C@@H](COP(=O)(O)OCCCOP(=O)(O)OCCCOP(=O)(O)OCCCOP(=O)(O)OCCCOP(=O)(O)OCCCOP(=O)(O)OCCCOP(=O)(O)OCCCOP(=O)(O)OCCCOP(=O)(O)OCCCOP(=O)(O)OCCCOP(=O)(O)OCCCCCCNC(=O)c3cc(Cl)c(C(=O)O)c(-c4c5cc(Cl)c(=O)c(Cl)c-5oc5c(Cl)c(O)c(Cl)cc45)c3Cl)O2)c(=O)[nH]c1=O` showed a pIC50 of 5.89.
`Cc1cn([C@H]2C[C@H](OP(=O)(O)OC[C@H]3O[C@@H](n4cc(C)c(=O)[nH]c4=O)C[C@@H]3OP(=O)(O)OC[C@H]3O[C@@H](n4cc(C)c(=O)[nH]c4=O)C[C@@H]3OP(=O)(O)OC[C@H]3O[C@@H](n4cnc5c(=O)[nH]c(N)nc54)C[C@@H]3OP(=O)(O)OC[C@H]3O[C@@H](n4cc(C)c(=O)[nH]c4=O)C[C@@H]3OP(=O)(O)OC[C@H]3O[C@@H](n4cnc5c(=O)[nH]c(N)nc54)C[C@@H]3OP(=O)(O)OC[C@H]3O[C@@H](n4cc(C)c(=O)[nH]c4=O)C[C@@H]3O)[C@@H](COP(=O)(O)O[C@H]3C[C@H](n4cc(C)c(=O)[nH]c4=O)O[C@@H]3COP(=O)(O)O[C@H]3C[C@H](n4cc(C)c(=O)[nH]c4=O)O[C@@H]3COP(=O)(O)O[C@H]3C[C@H](n4cnc5c(=O)[nH]c(N)nc54)O[C@@H]3COP(=O)(O)O[C@H]3C[C@H](n4cnc5c(=O)[nH]c(N)nc54)O[C@@H]3COP(=O)(O)O[C@@H]3C[C@@H](CO)N(C(=O)CCCCCNC(=O)c4ccc(C(=O)O)c(-c5c6ccc(=O)cc-6oc6cc(O)ccc56)c4)C3)O2)c(=O)[nH]c1=O` showed a pIC50 of 6.49.
Turning to `CO[C@@H]1[C@H](O)[C@@H](COP(=O)(O)O[C@H]2[C@@H](OC)[C@H](n3cnc4c(=O)[nH]c(N)nc43)O[C@@H]2COP(=O)(O)O[C@H]2[C@@H](OC)[C@H](n3ccc(=O)[nH]c3=O)O[C@@H]2COP(=O)(O)O[C@H]2[C@@H](OC)[C@H](n3cnc4c(=O)[nH]c(N)nc43)O[C@@H]2COP(=O)(O)O[C@H]2[C@@H](OC)[C@H](n3ccc(=O)[nH]c3=O)O[C@@H]2COP(=O)(O)O[C@H]2[C@@H](OC)[C@H](n3ccc(=O)[nH]c3=O)O[C@@H]2COP(=O)(O)O[C@H]2[C@@H](OC)[C@H](n3ccc(=O)[nH]c3=O)O[C@@H]2COP(=O)(O)O[C@H]2[C@@H](OC)[C@H](n3ccc(=O)[nH]c3=O)O[C@@H]2COP(=O)(O)O[C@H]2[C@@H](OC)[C@H](n3ccc(=O)[nH]c3=O)O[C@@H]2COP(=O)(O)O[C@H]2[C@@H](OC)[C@H](n3cnc4c(=O)[nH]c(N)nc43)O[C@@H]2COP(=O)(O)O[C@H]2[C@@H](OC)[C@H](n3cnc4c(=O)[nH]c(N)nc43)O[C@@H]2COP(=O)(O)OCCCCCCNC(=O)c2cc(Cl)c(C(=O)O)c(-c3c4cc(Cl)c(=O)c(Cl)c-4oc4c(Cl)c(O)c(Cl)cc34)c2Cl)O[C@H]1n1ccc(=O)[nH]c1=O`, the pIC50 was 7.28.
The value for `Cc1cn([C@H]2C[C@H](OP(=O)(O)OC[C@H]3O[C@@H](n4cnc5c(=O)[nH]c(N)nc54)C[C@@H]3OP(=O)(O)OC[C@H]3O[C@@H](n4cc(C)c(=O)[nH]c4=O)C[C@@H]3OP(=O)(O)OC[C@H]3O[C@@H](n4cnc5c(=O)[nH]c(N)nc54)C[C@@H]3OP(=O)(O)OC[C@H]3O[C@@H](n4cc(C)c(=O)[nH]c4=O)C[C@@H]3OP(=O)(O)OCCCCCCNC(=S)Nc3ccc(-c4c5cc(Br)c(=O)c(Br)c-5oc5c(Br)c(O)c(Br)cc45)c(C(=O)O)c3)[C@@H](COP(=O)(O)O[C@H]3C[C@H](n4cc(C)c(=O)[nH]c4=O)O[C@@H]3COP(=O)(S)O[C@H]3C[C@H](n4cc(C)c(=O)[nH]c4=O)O[C@@H]3COP(=O)(S)O[C@H]3C[C@H](n4cc(C)c(=O)[nH]c4=O)O[C@@H]3COP(=O)(S)O[C@H]3C[C@H](n4cc(C)c(=O)[nH]c4=O)O[C@@H]3COP(=O)(O)O[C@H]3C[C@H](n4cnc5c(=O)[nH]c(N)nc54)O[C@@H]3COP(=O)(O)O[C@H]3C[C@H](n4cnc5c(=O)[nH]c(N)nc54)O[C@@H]3CO)O2)c(=O)[nH]c1=O` (stereo partly drawn) was 7.66; that for `Cc1cn([C@H]2C[C@H](OP(=O)(S)OC[C@H]3O[C@@H](n4cc(C)c(=O)[nH]c4=O)C[C@@H]3OP(=O)(S)OC[C@H]3O[C@@H](n4cc(C)c(=O)[nH]c4=O)C[C@@H]3OP(=O)(S)OC[C@H]3O[C@@H](n4cnc5c(=O)[nH]c(N)nc54)C[C@@H]3OP(=O)(S)OC[C@H]3O[C@@H](n4cc(C)c(=O)[nH]c4=O)C[C@@H]3OP(=O)(S)OC[C@H]3O[C@@H](n4cnc5c(=O)[nH]c(N)nc54)C[C@@H]3OP(=O)(S)OC[C@H]3O[C@@H](n4cc(C)c(=O)[nH]c4=O)C[C@@H]3OP(=O)(S)OCCCCCCNC(=S)Nc3ccc(-c4c5cc(Br)c(=O)c(Br)c-5oc5c(Br)c(O)c(Br)cc45)c(C(=O)O)c3)[C@@H](COP(=O)(S)O[C@H]3C[C@H](n4cc(C)c(=O)[nH]c4=O)O[C@@H]3COP(=O)(S)O[C@H]3C[C@H](n4cc(C)c(=O)[nH]c4=O)O[C@@H]3COP(=O)(S)O[C@H]3C[C@H](n4cnc5c(=O)[nH]c(N)nc54)O[C@@H]3COP(=O)(S)O[C@H]3C[C@H](n4cnc5c(=O)[nH]c(N)nc54)O[C@@H]3CO)O2)c(=O)[nH]c1=O` (stereo partly drawn) was 7.74.
Compound `Cc1cn([C@H]2C[C@H](OP(=O)(O)OC[C@H]3OCC[C@@H]3OP(=O)(O)OC[C@H]3OCC[C@@H]3OP(=O)(O)OC[C@H]3OCC[C@@H]3OP(=O)(O)OC[C@H]3OCC[C@@H]3OP(=O)(O)OC[C@H]3OCC[C@@H]3OP(=O)(O)OC[C@H]3OCC[C@@H]3OP(=O)(O)OC[C@H]3O[C@@H](n4cc(C)c(=O)[nH]c4=O)C[C@@H]3O)[C@@H](COP(=O)(O)O[C@H]3C[C@H](n4cc(C)c(=O)[nH]c4=O)O[C@@H]3COP(=O)(O)O[C@H]3C[C@H](n4cnc5c(=O)[nH]c(N)nc54)O[C@@H]3COP(=O)(O)O[C@H]3C[C@H](n4cnc5c(=O)[nH]c(N)nc54)O[C@@H]3COP(=O)(O)OCCCCCCNC(=O)c3cc(Cl)c(C(=O)O)c(-c4c5cc(Cl)c(=O)c(Cl)c-5oc5c(Cl)c(O)c(Cl)cc45)c3Cl)O2)c(=O)[nH]c1=O` gave a pIC50 of 6.60.
Consider `CCCCCCCC/C=C\CCCCCCCC(=O)NCCCOCC(O)COP(=O)(O)O[C@H]1C[C@H](n2cc(C)c(=O)[nH]c2=O)O[C@@H]1COP(=O)(O)O[C@H]1C[C@H](n2cnc3c(=O)[nH]c(N)nc32)O[C@@H]1COP(=O)(O)O[C@H]1C[C@H](n2cc(C)c(=O)[nH]c2=O)O[C@@H]1COP(=O)(O)O[C@H]1C[C@H](n2cnc3c(=O)[nH]c(N)nc32)O[C@@H]1COP(=O)(O)O[C@H]1C[C@H](n2cc(C)c(=O)[nH]c2=O)O[C@@H]1COP(=O)(O)O[C@H]1C[C@H](n2cc(C)c(=O)[nH]c2=O)O[C@@H]1COP(=O)(O)O[C@H]1C[C@H](n2cc(C)c(=O)[nH]c2=O)O[C@@H]1COP(=O)(O)O[C@H]1C[C@H](n2cc(C)c(=O)[nH]c2=O)O[C@@H]1COP(=O)(O)O[C@H]1C[C@H](n2cc(C)c(=O)[nH]c2=O)O[C@@H]1COP(=O)(O)O[C@H]1C[C@H](n2cnc3c(=O)[nH]c(N)nc32)O[C@@H]1COP(=O)(O)O[C@H]1C[C@H](n2cnc3c(=O)[nH]c(N)nc32)O[C@@H]1CO` (stereo partly drawn), for which the pIC50 was 6.70.
For the compound `Cc1cn([C@H]2C[C@H](OP(=O)(O)OC[C@H]3O[C@@H](n4cc(C)c(=O)[nH]c4=O)C[C@@H]3OP(=O)(O)OC[C@H]3O[C@@H](n4cc(C)c(=O)[nH]c4=O)C[C@@H]3OP(=O)(O)OC[C@H]3O[C@@H](n4cnc5c(=O)[nH]c(N)nc54)C[C@@H]3OP(=O)(O)OC[C@H]3O[C@@H](n4cc(C)c(=O)[nH]c4=O)C[C@@H]3OP(=O)(O)OC[C@H]3O[C@@H](n4cnc5c(=O)[nH]c(N)nc54)C[C@@H]3OP(=O)(O)OC[C@H]3O[C@@H](n4cc(C)c(=O)[nH]c4=O)C[C@@H]3O)[C@@H](COP(=O)(O)O[C@H]3C[C@H](n4cc(C)c(=O)[nH]c4=O)O[C@@H]3COP(=O)(O)O[C@H]3C[C@H](n4cc(C)c(=O)[nH]c4=O)O[C@@H]3COP(=O)(O)O[C@H]3C[C@H](n4cnc5c(=O)[nH]c(N)nc54)O[C@@H]3COP(=O)(O)O[C@H]3C[C@H](n4cnc5c(=O)[nH]c(N)nc54)O[C@@H]3COP(=O)(O)OCCCCCCNC(=O)c3cc(Cl)c(-c4c5cc(Cl)c(O)c(Cl)c5nc5c(Cl)c(O)c(Cl)cc45)c(C(=O)O)c3Cl)O2)c(=O)[nH]c1=O`, the pIC50 was 7.28.
